The values that follow come from patent US6369096B1, “Benzyloxy prodigiosine compounds” (Pharmacia & Upjohn S.p.A., priority 1998, dated 2002).

The bioavailability is the share of a dose that reaches the circulation, judged against a reference dose that is usually intravenous.

Where two headings read alike, the source gives them in different places.

A short description of data set [1]: In vivo bioavailability evaluation (pharmacokinetics and oral bioavailability). The following applies: 10 mg/kg, male Lewis rat, iv 1 mg salt/kg, oral 10 mg salt/kg, read-out: F % (bioavailability). Here is the method:
Aim of the study is to determine the pharmacokinetics and the oral bioavailability of the instant prodigiosine compounds in rats.
Species/strain/sex: rat/Lewis/male
No. formulations: 1 oral; 1 intravenous
No. animals/formulation: 3+2 controls (+an ulterior rat treated with the iv formulation); total 9
Dosages: iv: 1 mg salt/kg; oral: 10 mg salt/kg
Vehicles: iv: a solution at the conc. of 5 mg/ml in PEG 400/Tween 80 (6:1 v:v) was prepared, then diluted with dextrose at the final concentration of 0.5 mg/ml; oral: a solution at the concentration of 5 mg/ml in Cremophor ELP/EtOH abs (6.5:3.5 v:v) was prepared, then diluted with saline at the final concentration of 1 mg/ml
Experimental: Three cannulated rats/formulation were treated. One rat/formulation was only treated with the vehicle, as basal sample. The intravenous administration was given into the caudal vein as bolus; the oral administration by gastric gavage as solution. […] Plasma was immediately obtained by centrifugation (10000 rpm for 3 min) and stored in labelled tubes at −30° C. till analysis.
Analytical assay: the extraction of the compounds was performed by protein precipitation by adding 100 mcl of acetonitrile to 25 mcl of plasma. The concentrations of the compounds (as free bases) in plasma were determined by LC-MS method. Column: APEX CN RP 5 mc, 10×4 mm (Jones chromatography); mobil phase: 70% acetonitrile/30% 1 mM ammonium formate +0.01% triethylamine adjusted to pH 2.0 with formic acid; flow rate: 1 ml/min; injection volume: 10 mcL; oven temperature: 45° C.; MS detection by APCI using MRM positive ion; MRM transition: 330 m/z>239 m/z, retention time: 1.4 min; LLOQ: 5.03 ng/ml; ULOQ: 10060 ng/ml. Bioavailability is expressed in following Table 1 as F %. ClogP is a lypophylic index, related to octanol/water partition coefficient.

Data set [2] relates to female C57 Bl/6 mice primed and challenged with sheep red blood cells (SRBC). In words: DTH (Delayed-Type Hypersensitivity) assay. The class given is in vivo. The following applies: given daily for six days, dose reducing footpad thickness increase by 30% vs controls. How it is done:
The immunosuppressive activity of the compounds of the invention was evaluated in vivo by DTH (Delayed-Type Hypersensitivity) assay. According to the test, sheep red blood cells (SRBC) (1×10^5 cells) suspended in 500 mcL saline, were injected i.v. into the tail vein of female C57 Bl/6 mice (8-9 week old). Five days later 1×10^8 SRBC suspended in 50 mcL saline were injected into the left hind footpad. The increase in footpad thickness was measured with a dial micrometer 24 h after challenge. The test compounds were given daily for six days at different doses starting on the day of priming. Activity was expressed as ED30 (dose able to reduce by 30% the thickness increase compared to controls).

In data set [3] the test system is Th murine cells D10-G4.1 (ATCC TIB 224). Nature of the data set: Inhibition of IL-2 proliferation induced activity (3H-TdR uptake). In kind it is cell-based. To be noted: for 3HTdR uptake: mean cpm from triplicate wells, 48 h. How it is done: The Th murine cells D10-G4.1 (ATCC TIB 224) are IL-2 dependent for their growth. They are cultured in complete RPMI 1640 medium enriched with rhIL-2 (6 ng/ml) and ConA (6 ng/ml). For testing the inhibitory effects of the compounds of the invention on IL-2 activity, D 10 cells are washed twice with complete medium, resuspended at 10^5 cells/ml in the same medium and triplicately distributed (10^4 cells/well) in flat bottomed 96 well plates. […] and […] at different concentrations are simultaneously added to the cells. The cultures are then incubated at 37° C. in a humidified 5% CO2 incubator for 48 h, the last 18 h in the presence of 0.2 µCi of ^3H-TdR. Uptake of 3H-TdR in the cells (cpm) is taken as a measure of cell proliferation.

Consider `CC1=NC(=Cc2[nH]c(-c3ccc[nH]3)cc2OCc2ccccc2)C=C1.Cl` [PNU 168727, 4-benzyloxy-5-[(5-methyl-2H-pyrrol-2-ylidene)methyl]-2,2′-bi-1H-pyrrole, hydrochloride], for which the bioavailability in data set [1] (plasma) worked out at 35%. The “DTH ED30 iv” value in data set [2] was 1.7 mg/kg. In data set [2], the “DTH ED30 os” value amounted to 5.3 mg/kg. Besides, the “% inhibition vs vehicle” value was 5% in data set [3] (1 ng/ml), 11% in data set [3] (3 ng/ml), 87% in data set [3] (10 ng/ml) and 100% in data set [3] (30 ng/ml). The 3HTdR uptake was 58245 cpm in data set [3] (1 ng/ml), 54594 cpm in data set [3] (3 ng/ml), 8100 cpm in data set [3] (10 ng/ml) and 52 cpm in data set [3] (30 ng/ml).

Turning to `CCCCCC1=NC(=Cc2[nH]c(-c3ccc[nH]3)cc2OCc2ccccc2)C=C1.Cl` [PNU 169417, 4-benzyloxy-5-[(5-pentyl-2H-pyrrol-2-ylidene)methyl]-2,2′-bi-1H-pyrrole, hydrochloride], in data set [1] (plasma), the bioavailability amounted to 18%. For the same compound, in data set [2], the “DTH ED30 iv” value came out at 1.1 mg/kg and the “DTH ED30 os” value came to 4.4 mg/kg.

For the compound `CCCCCCCCCCCC1=NC(=Cc2[nH]c(-c3ccc[nH]3)cc2OCc2ccccc2)C=C1.Cl` [PNU 156804, 4-benzyloxy-5-[(5-undecyl-2H-pyrrol-2-ylidene)methyl]-2,2′-bi-1H-pyrrole, hydrochloride, reference compound], the bioavailability in data set [1] (in vivo) came out at 7%. In addition, in data set [2], the “DTH ED30 iv” value was 0.44 mg/kg and the “DTH ED30 os” value is reported as 18.7 mg/kg.
